Laboratory results taken from the NIST ThermoML archive (doi:10.1021/je800848u).
± gives the expanded uncertainty stated by the source.

Key:
[1] = Crystal; visual observation
[2] = Molar enthalpy of transition or fusion; conditions: Crystal; DSC

Normal melting temperature [1] [°C]	Molar enthalpy of transition or fusion [2] [kcal/mol]	SMILES
141.00 ± 0.4	6.58 ± 0.189	O=C(O)c1ccccc1Cl [2-chlorobenzoic acid]
127.00 ± 0.4	5.53 ± 0.163	NC(=O)c1ccccc1 [benzamide]
